Ends that are not written are not given here.
Columns and labels:
[1] = system: AMPKα1 wild-type (WT) and knockout (KO) mice; experiment: Survival analysis up to 7 days after hemorrhagic shock; type: in vivo; details: 100 μg/kg intra-arterially at resuscitation, subcutaneously at 24 h and 48 h, compared to vehicle treatment
Experimental: Preparation of PEGylated humanin-G and survival analysis. In separate groups of mice survival studies were conducted. For these studies, we generated a longer-acting humanin-G by covalent conjugation of polyethylene glycol (PEG). Briefly, humanin-G was conjugated (1:1 molar ratio) to generate a non-cleavable PEGylated humanin-G. Humanin-G was dissolved in phosphate-buffered saline, pH 7.4, with 5 mM EDTA and mixed at room temperature with an equal volume of DMSO containing PEG-maleimide and left overnight (26). The product, PEGylated humanin-G (PEG10 kDa) was purified by size-exclusion chromatography with a 50 mM ammonium acetate buffer. Mice were subjected to hemorrhagic shock as described above. Mice received PEGylated humanin-G (100 μg/kg, intra-arterially) as a single dose at 90 minutes after blood removal at the time of resuscitation. Three hours after resuscitation, the femoral artery was occluded, and the skin incision was closed in layers. Mice were then allowed to awaken from anesthesia. Mice then received a second and a third dose of PEGylated humanin-G (100 μg/kg, subcutaneously) at 24 hours and 48 hours thereafter. Mice also received further fluid resuscitation (0.5 mL of Lactated Ringer's solution subcutaneously) at 6 hours and 24 hours following hemorrhagic shock. […] Mice were then monitored for survival for 7 days. […]

mice with sepsis = details: cited from earlier work
[2] = system: AMPKα1 and AMPKα2 subunits; details: thoracic aortas; mice with sepsis; cited from earlier work

## PEGylated humanin-G: non-cleavable PEGylated humanin-G, humanin-G conjugated 1:1 molar ratio with PEG-maleimide (PEG10 kDa) (MAPRGFSCLLLLTGEIDLPVKRRA; not fully specified (residue 8); also: PEG 10 kDa maleimide conjugate, attachment site not given here; UniProt Q8IVG9 1-24, looked up, variant S14G)
[1]
  survival: significantly ameliorated

## colivelin: synthetic analogue of humanin; SALLRSIPAPAGASRLLLLTGEIDLP (SEQ ID NO: 8)
Mice with sepsis; mice, Urban C, et al. 2022
  organ injury in experimental septic shock: protective effects
Mice with sepsis; thoracic aortas
  endothelial damage in mice with sepsis: ameliorating
[2]
  activation of AMPKα1 and AMPKα2 subunits: activates
